Like-named read-outs stand apart in the source and are kept apart here.
Tests used:
Recombinant Btk = Recombinant Btk (Homo sapiens (Human), UniProt Q06187); assay: BTK kinase assay (TR-FRET); conditions: 1 hour pre-incubation, ATP at Km
[1] = molecular target: phosphorylated Btk at Tyr223 in Ramos cells (Homo sapiens (Human), UniProt Q06187); assay: BTK pY223 cellular assay (HTRF) in Ramos cells; type: cell-based; conditions: 1 hour compound incubation, pervanadate or Na3VO4 stimulation
phosphorylated Btk at Tyr223 in Ramos cells, sequence (Q06187 whole entry): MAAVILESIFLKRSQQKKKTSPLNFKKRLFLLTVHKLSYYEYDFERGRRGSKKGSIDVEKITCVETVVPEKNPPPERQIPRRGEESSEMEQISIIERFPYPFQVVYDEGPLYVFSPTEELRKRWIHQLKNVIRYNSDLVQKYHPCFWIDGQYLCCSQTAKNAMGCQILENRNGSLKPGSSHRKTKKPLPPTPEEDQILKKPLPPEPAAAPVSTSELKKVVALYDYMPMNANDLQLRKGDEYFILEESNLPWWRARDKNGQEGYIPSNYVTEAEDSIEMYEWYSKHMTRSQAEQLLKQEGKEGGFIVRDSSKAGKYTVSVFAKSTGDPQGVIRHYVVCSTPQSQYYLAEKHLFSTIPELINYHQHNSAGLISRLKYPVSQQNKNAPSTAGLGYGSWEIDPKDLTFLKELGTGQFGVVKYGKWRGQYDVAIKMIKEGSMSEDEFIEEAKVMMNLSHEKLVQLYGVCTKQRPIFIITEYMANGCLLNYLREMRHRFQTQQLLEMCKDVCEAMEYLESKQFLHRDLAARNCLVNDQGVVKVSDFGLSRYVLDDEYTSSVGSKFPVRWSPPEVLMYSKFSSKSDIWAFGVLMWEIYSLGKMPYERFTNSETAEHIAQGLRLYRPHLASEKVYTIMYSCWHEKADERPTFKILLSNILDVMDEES
Experimental: Btk pY223 cellular assay is a HTRF based assay intended to determine the endogenous levels of phosphorylated Btk at Tyr223.
Briefly, Ramos cells were serum starved in 0.5% FBS-containing RPMI1640 for 2 hours. Following starvation, the cells were incubated with compounds to be detected at various concentrations in a CO2 incubator for 1 hour. After incubation, cells were stimulated with 1 mM pervanadate (PV) or Na3VO4 (OV) for 20 min. Then, the cells were spinned down and lysed with 1× lysis buffer at RT for 10 min (4× lysis buffer supplied in the kit). During the incubation, 1× antibody mix was prepared by diluting anti-Btk-d2 and anti-pBtk-K in detection buffer (supplied in the kit). […] After that, 18 ul of cell lysate was transferred to the assay plate pre-loaded with antibody solution. After mixing gently and spinning briefly, the plate was sealed up and kept in dark at RT for 18 hours. […] IC50 values were calculated with GraphPad Prism software using the sigmoidal dose-response function.

Recombinant Btk, sequence (Q06187 whole entry): as above

Row | Structure (SMILES) | IC50 (Recombinant Btk; IC50 (nM) Btk) | IC50 [1] | IC50 (Recombinant Btk; read-out: IC50 (nM) Btk)
1 | C=CC(=O)Nc1ccccc1C1CCNc2c(C(N)=O)c(-c3ccc(OCc4ccccc4)cc3)nn21 (single isomer, unassigned) [Compound 10a] | 0.51 nM | 2.2 nM | 
2 | C=CC(=O)N1CC[C@@H]2C(CNc3c(C(N)=O)c(-c4ccc(Oc5ccccc5)cc4)nn32)C1 (single isomer, unassigned) [Compound 30a] |  | 5.6 nM | 0.66 nM
3 | NC(=O)c1c(-c2ccc(Oc3ccccc3)cc2)nn2c1NCCC2c1ccc(N)cc1 (centres unmarked) [Compound 98, 7-(4-aminophenyl)-2-(4-phenoxyphenyl)-4,5,6,7-tetrahydropyrazolo[1,5-a]pyrimidine-3-carboxamide] |  |  | 77 nM

Reference: patent US20250340560A1, “SUBSTITUTED PYRAZOLO[1,5-a]PYRIMIDINES AS BRUTON'S TYROSINE KINASE MODULATORS” (BEIGENE SWITZERLAND GMBH, priority 2013, published 2025)
